{
  "source": "patent US20100204265A1",
  "about": "(priority 2009, published 2010)",
  "data": [
    {"system": "ET (Huh-lucubineo-ET) cell line harboring I389luc-ubi-neo/NS3-3′/ET HCV replicon", "experiment": "Replicon assay (HCV replicon, luciferase readout)", "format": "cell-based", "conditions": "Hepatitis C virus", "in_short": "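Compounds at 10-point 2-fold dilutions (overall 0.1 nM to […], 0.5% DMSO) were applied to ET cells carrying a luciferase-neo HCV replicon, seeded a day earlier. After 48-72 hours, luciferase-based % inhibition was fitted with a Hill equation for EC50, and parallel WST-1 readings gave TC50.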", "units": {"EC50": "µM"}, "values": [
      {"smiles": "COc1ccc(NC2CCN(C(=O)c3nc4c(C(F)(F)F)cc(-c5ccoc5)cn4c3Cl)C2)cc1", "note": "(centres unmarked) [Compound 180, (3-Chloro-6-furan-3-yl-8-trifluoromethyl-imidazo[1,2-a]pyridin-2-yl)-[3-(4-methoxy-phenylamino)-pyrrolidin-1-yl]-methanone]", "EC50": 12.1},
      {"smiles": "O=C(c1nc2c(C(F)(F)F)cc(-c3ccoc3)cn2c1Cl)N1CCC(O)(c2ncccc2F)CC1", "note": "[Compound 222, (3-Chloro-6-furan-3-yl-8-trifluoromethyl-imidazo[1,2-a]pyridin-2-yl)-(3-fluoro-4′-hydroxy-3′,4′,5′,6′-tetrahydro-2′H-[2,4′]bipyridinyl-1′-yl)-methanone]", "EC50": 0.624},
      {"smiles": "O=C(c1nc2c(C(F)(F)F)cc(-c3cn[nH]c3)cn2c1Cl)N1CC=C(c2cn[nH]c2)CC1", "note": "[Compound 112, [3-Chloro-6-(1H-pyrazol-4-yl)-8-trifluoromethyl-imidazo[1,2-a]pyridin-2-yl]-[4-(1H-pyrazol-4-yl)-3,6-dihydro-2H-pyridin-1-yl]-methanone]", "EC50": 0.368},
      {"smiles": "COC(=O)CCNC(=O)c1cn2cc(-c3ccoc3)cc(C(F)(F)F)c2n1", "note": "[Compound 276, 3-[(6-Furan-3-yl-8-trifluoromethyl-imidazo[1,2-a]pyridine-2-carbonyl)-amino]-propionic acid methyl ester]", "EC50": "> 50"},
      {"smiles": "CC(C)CCOC1CCN(C(=O)c2nc3c(C(F)(F)F)cc(-c4ccoc4)cn3c2Cl)CC1", "note": "[Compound 158, (3-Chloro-6-furan-3-yl-8-trifluoromethyl-imidazo[1,2-a]pyridin-2-yl)-[4-(3-methyl-butoxy)-piperidin-1-yl]-methanone]", "EC50": 8.11},
      {"smiles": "CS(=O)(=O)NC1CN(C(=O)c2nc3c(C(F)(F)F)cc(-c4cccnc4)cn3c2Cl)C1", "note": "[Compound 142, N-[1-(3-Chloro-6-pyridin-3-yl-8-trifluoromethyl-imidazo[1,2-a]pyridine-2-carbonyl)-azetidin-3-yl]-methanesulfonamide]", "EC50": 1.94},
      {"smiles": "Cc1ccc(F)c(C2=CCN(C(=O)c3nc4c(C(F)(F)F)cc(-c5ccoc5)cn4c3Cl)CC2)n1", "note": "[Compound 207, (3-Chloro-6-furan-3-yl-8-trifluoromethyl-imidazo[1,2-a]pyridin-2-yl)-(3-fluoro-6-methyl-3′,6′-dihydro-2′H-[2,4′]bipyridinyl-1′-yl)-methanone]", "EC50": 17.9},
      {"smiles": "O=C(c1nc2c(C(F)(F)F)cc(-c3ccoc3)cn2c1Cl)N1CC=C(c2ccccn2)CC1", "note": "[Compound 210, (3-Chloro-6-furan-3-yl-8-trifluoromethyl-imidazo[1,2-a]pyridin-2-yl)-(3′,6′-dihydro-2′H-[2,4′]bipyridinyl-1′-yl)-methanone]", "EC50": 0.481},
      {"smiles": "NC(=O)[C@H](Cc1c[nH]c2ccccc12)NC(=O)Cc1cn2cc(-c3ccoc3)cc(C(F)(F)F)c2n1", "note": "[Compound 303, 2-[2-(6-Furan-3-yl-8-trifluoromethyl-imidazo[1,2-a]pyridin-2-yl)-acetylamino]-3-(1H-indol-3-yl)-propionamide]", "EC50": "> 50"},
      {"smiles": "O=C(c1nc2c(C(F)(F)F)cc(-c3ccoc3)cn2c1Cl)N1CC=C(C#CC2CCCC2)CC1", "note": "[Compound 200, (3-Chloro-6-furan-3-yl-8-trifluoromethyl-imidazo[1,2-a]pyridin-2-yl)-(4-cyclopentylethynyl-3,6-dihydro-2H-pyridin-1-yl)-methanone]", "EC50": "> 50"},
      {"smiles": "CCS(=O)(=O)NC1CN(C(=O)c2cn3cc(-c4coc(Br)c4)cc(C(F)(F)F)c3n2)C1", "note": "[Compound 146, Ethanesulfonic acid {1-[6-(5-bromo-furan-3-yl)-8-trifluoromethyl-imidazo[1,2-a]pyridine-2-carbonyl]-azetidin-3-yl}-amide]", "EC50": 2.24},
      {"smiles": "O=C(Cc1cn2cc(-c3ccoc3)cc(C(F)(F)F)c2n1)NCCc1ccccc1", "note": "[Compound 192, 2-(6-Furan-3-yl-8-trifluoromethyl-imidazo[1,2-a]pyridin-2-yl)-N-phenethyl-acetamide]", "EC50": "> 50"},
      {"smiles": "COC(=O)C(CO)NC(=O)Cc1cn2cc(-c3ccoc3)cc(C(F)(F)F)c2n1", "note": "(centres unmarked) [Compound 292, 2-[2-(6-Furan-3-yl-8-trifluoromethyl-imidazo[1,2-a]pyridin-2-yl)-acetylamino]-3-hydroxy-propionic acid methyl ester]", "EC50": "> 50"},
      {"smiles": "O=C1CCCC2(CCN(C(=O)c3nc4c(C(F)(F)F)cc(-c5ccoc5)cn4c3Cl)CC2)N1", "note": "[Compound 324, 9-(3-Chloro-6-furan-3-yl-8-trifluoromethyl-imidazo[1,2-a]pyridine-2-carbonyl)-1,9-diaza-spiro[5.5]undecan-2-one]", "EC50": "> 50"},
      {"smiles": "Clc1ccc(Cn2c(CN3CCCC3)nc3ccccc32)cc1", "note": "[Compound 235, 1-(4-Chloro-benzyl)-2-pyrrolidin-1-ylmethyl-1H-benzoimidazole]", "EC50": 40.2},
      {"smiles": "O=C(c1nc2c(C(F)(F)F)cc(-c3ccoc3)cn2c1Cl)N1CC=C(/C=C/C2CC2)CC1", "note": "[Compound 212, (3-Chloro-6-furan-3-yl-8-trifluoromethyl-imidazo[1,2-a]pyridin-2-yl)-[4-(2-cyclopropyl-vinyl)-3,6-dihydro-2H-pyridin-1-yl]-methanone]", "EC50": 0.338},
      {"smiles": "CC(C)CS(=O)(=O)NCc1cn2cc(-c3ccoc3)cc(C(F)(F)F)c2n1", "note": "[Compound 232, 2-Methyl-propane-1-sulfonic acid (6-furan-3-yl-8-trifluoromethyl-imidazo[1,2-a]pyridin-2-ylmethyl)-amide]", "EC50": "> 50"},
      {"smiles": "COC(=O)C(CO)NC(=O)c1cn2cc(-c3ccoc3)cc(C(F)(F)F)c2n1", "note": "(centres unmarked) [Compound 252, 2-[(6-Furan-3-yl-8-trifluoromethyl-imidazo[1,2-a]pyridine-2-carbonyl)-amino]-3-hydroxy-propionic acid methyl ester]", "EC50": "> 50"},
      {"smiles": "COC(=O)C(CC(C)C)NC(=O)Cc1cn2cc(-c3ccoc3)cc(C(F)(F)F)c2n1", "note": "(centres unmarked) [Compound 306, 2-[2-(6-Furan-3-yl-8-trifluoromethyl-imidazo[1,2-a]pyridin-2-yl)-acetylamino]-4-methyl-pentanoic acid methyl ester]", "EC50": "> 50"},
      {"smiles": "CN(C)C(=O)CNC(=O)Cc1cn2cc(-c3ccoc3)cc(C(F)(F)F)c2n1", "note": "[Compound 302, N-Dimethylcarbamoylmethyl-2-(6-furan-3-yl-8-trifluoromethyl-imidazo[1,2-a]pyridin-2-yl)-acetamide]", "EC50": "> 50"},
      {"smiles": "O=C(O)CNC(=O)c1cn2cc(-c3ccoc3)cc(C(F)(F)F)c2n1", "note": "[Compound 264, [(6-Furan-3-yl-8-trifluoromethyl-imidazo[1,2-a]pyridine-2-carbonyl)-amino]-acetic acid]", "EC50": "> 50"},
      {"smiles": "CCOc1cccnc1C1=CCN(C(=O)c2nc3c(C(F)(F)F)cc(-c4ccoc4)cn3c2Cl)CC1", "note": "[Compound 115, (3-Chloro-6-furan-3-yl-8-trifluoromethyl-imidazo[1,2-a]pyridin-2-yl)-(3-ethoxy-3′,6′-dihydro-2′H-[2,4′]bipyridinyl-1′-yl)-methanone]", "EC50": 22.5},
      {"smiles": "O=C(NCc1cn2cc(-c3ccoc3)cc(C(F)(F)F)c2n1)C1CC1", "note": "[Compound 226, Cyclopropanecarboxylic acid (6-furan-3-yl-8-trifluoromethyl-imidazo[1,2-a]pyridin-2-ylmethyl)-amide]", "EC50": "> 50"},
      {"smiles": "O=C(c1nc2c(C(F)(F)F)cc(/C=C/C3CC3)cn2c1Cl)N1CC=C(c2ncccc2F)CC1", "note": "[Compound 127, [3-Chloro-6-(2-cyclopropyl-vinyl)-8-trifluoromethyl-imidazo[1,2-a]pyridin-2-yl]-(3-fluoro-3′,6′-dihydro-2′H-[2,4′]bipyridinyl-1′-yl)-methanone]", "EC50": 0.428},
      {"smiles": "O=C(NC(CO)C(=O)O)c1cn2cc(-c3ccoc3)cc(C(F)(F)F)c2n1", "note": "(centres unmarked) [Compound 267, 2-[(6-Furan-3-yl-8-trifluoromethyl-imidazo[1,2-a]pyridine-2-carbonyl)-amino]-3-hydroxy-propionic acid]", "EC50": "> 50"},
      {"smiles": "O=C(Cc1cn2cc(-c3ccoc3)cc(C(F)(F)F)c2n1)N1CCC(c2cccs2)C1", "note": "(centres unmarked) [Compound 187, 2-(6-Furan-3-yl-8-trifluoromethyl-imidazo[1,2-a]pyridin-2-yl)-1-(3-thiophen-2-yl-pyrrolidin-1-yl)-ethanone]", "EC50": 2},
      {"smiles": "CC(O)C(NC(=O)c1cn2cc(-c3ccoc3)cc(C(F)(F)F)c2n1)C(N)=O", "note": "(centres unmarked) [Compound 282, 6-Furan-3-yl-8-trifluoromethyl-imidazo[1,2-a]pyridine-2-carboxylic acid (1-carbamoyl-2-hydroxy-propyl)-amide]", "EC50": "> 50"},
      {"smiles": "O=C(c1nc2c(C(F)(F)F)cc(Br)cn2c1Cl)N1CC=C(c2ncccc2F)CC1", "note": "[Compound 125, (6-Bromo-3-chloro-8-trifluoromethyl-imidazo[1,2-a]pyridin-2-yl)-(3-fluoro-3′,6′-dihydro-2′H-[2,4′]bipyridinyl-1′-yl)-methanone]", "EC50": 0.0293},
      {"smiles": "O=C(c1nc2c(C(F)(F)F)cc(-c3ccoc3)cn2c1Cl)N1CC=C(c2ncccc2C(F)(F)F)CC1", "note": "[Compound 205, (3-Chloro-6-furan-3-yl-8-trifluoromethyl-imidazo[1,2-a]pyridin-2-yl)-(3-trifluoromethyl-3′,6′-dihydro-2′H-[2,4′]bipyridinyl-1′-yl)-methanone]", "EC50": 18},
      {"smiles": "O=C(c1nc2c(C(F)(F)F)cc(C3=CCCCC3)cn2c1Cl)N1CC=C(c2nccs2)C1", "note": "[Compound 217, (3-Chloro-6-cyclohex-1-enyl-8-trifluoromethyl-imidazo[1,2-a]pyridin-2-yl)-(3-thiazol-2-yl-2,5-dihydro-pyrrol-1-yl)-methanone]", "EC50": 0.0505},
      {"smiles": "COC(=O)C(C)NC(=O)Cc1cn2cc(-c3ccoc3)cc(C(F)(F)F)c2n1", "note": "(centres unmarked) [Compound 304, 2-[2-(6-Furan-3-yl-8-trifluoromethyl-imidazo[1,2-a]pyridin-2-yl)-acetylamino]-propionic acid methyl ester]", "EC50": "> 50"},
      {"smiles": "CS(=O)(=O)NC1CN(C(=O)c2nc3c(C(F)(F)F)cc(-c4cccc(F)c4)cn3c2Cl)C1", "note": "[Compound 141, N-{1-[3-Chloro-6-(3-fluoro-phenyl)-8-trifluoromethyl-imidazo[1,2-a]pyridine-2-carbonyl]-azetidin-3-yl}-methanesulfonamide]", "EC50": 0.476}
    ]}
  ]
}
